Patent US7524823B2, “Macrolides” (Basilea Pharmaceutica AG, priority 2005, dated 2009)
Converted amounts (≈) assume the structure as drawn. Where two headings read alike, the source gives them in different places.

Assays:
Format in all cases: cell-based
Human neutrophils = test: Modulation of neutrophil elastase production; conditions: test compound 50 μM; fMLP 0.1 μM, cytochalasin B 5 mg/L; blood from 3 donors
Description: The neutrophil granulocyte is a key element of the inflammatory process. The neutrophils migrate to the site of inflammation and can be activated to release toxic products, including proteolytic enzymes such as elastase. […] Elastase is a major secreted product of activated neutrophils and is a major contributor to the destruction of tissue in inflammatory disease. Several bioassays based on the repression of secretion of elastase, have been described and used for the detection of anti-inflammatory products (Johansson, […]. Nat. Prod. 65: 32-41). […] The neutrophils are activated by addition of the bacterial product N-formyl methionyl-leucyl-phenylalanine (fMLP) and cytochalasin B, a stimulator of secretion. The amount of elastase secreted is determined by measuring the reaction of elastase with the chromogenic substrate succinyl-alanyl-alanyl-valyl-nitroanilide ([…]), which generates 4-nitroaniline after cleavage by elastase. […] Human neutrophils are isolated by applying whole heparinized blood to a Histopaque column and collecting the granulocytes by centrifugation. […] The total volume of the reaction mixture is 0.8 mL and concentrations specified are the final concentrations in the mixture. […] Neutrophil preparations from blood from 3 different donors were used in parallel. All samples were measured in duplicate. Results are given as % repression of activation of neutrophils in the following Table 5.

[1] = system: Staphylococcus aureus 1086; test: MIC by broth microdilution (CAMHB, NCCLS); conditions: code B: Staphylococcus aureus 1086
Procedure: (§1) MIC values for non-anaerobes were obtained by broth microdilution using CAMHB (BBL) according to NCCLS guidelines (National Committee for Clinical Laboratory Standards. Methods for dilution antimicrobial susceptibility tests for bacteria that grow aerobically, 5th ed. Approved standard M7-A6. NCCLS, Wayne, Pa., 2003). Drugs were dissolved in DMSO prior to dispensing into 96-well microtitre plates; the concentration of DMSO in assay wells never exceeded 2% (v/v). CAMHB was supplemented with 5% (v/v) horse serum (Sigma, cat. no. H-1270) in lieu of laked horse blood for cultivation of Streptococcus pneumoniae, and with 5% (v/v) Fildes enrichment (BBL, cat. no. 220810) supernate in lieu of Haemophilus Test Medium and additives for cultivation of Haemophilus influenzae (Pankuch G A, Hoellman D B, Lin G, Bajaksouzian S, Jacobs M R, Appelbaum P C. Activity of HMR 3647 compared to those of five agents against Haemophilus influenzae and Moraxella catarrhalis by MIC determination and time-kill assay. Antimicrob. Agents Chemother. November 1998; 42(11): 3032-4). Activities expressed as the minimal inhibitory concentrations (MICs) (μg/ml) are given in the following Table 3, and the microorganisms used for testing are listed in Table 2 below.

[2] = system: Escherichia coli ATCC 25922; test: MIC by broth microdilution (CAMHB, NCCLS); conditions: code C: Escherichia coli ATCC 25922
Procedure: as §1

[3] = system: Staphylococcus aureus ATCC 29213; test: MIC by broth microdilution (CAMHB, NCCLS); conditions: code A: Staphylococcus aureus ATCC 29213
Procedure: as §1

[4] = system: Propionibacterium acnes EG7NS; test: MIC by anaerobic broth microdilution (WCB, NCCLS); conditions: 48 h
Procedure: (§2) MIC values towards strains of propionibacteria were obtained by broth microdilution using WCB (Anaerobe Broth MIC, Difco) according to NCCLS guidelines (National Committee for Clinical Laboratory Standards. Methods for anti-microbial susceptibility testing of anaerobic bacteria, 5th ed.; approved standard. NCCLS publication no. M11-A5. NCCLS, Wayne, Pa., 2001). Microtitre plates were loaded into 7-L GENbox anaerobic incubation jars (BioMérieux, cat. no. 96 128) fitted with anaerobic atmosphere generators (BioMérieux, cat. no. 96 124) and a Dry Anaerobic Indicator Strip (BBL, cat. no. 271051). Under these conditions, an O2 concentration <0.1% was achieved by 2.5 h, and a CO2 concentration >15% by 24 h. MIC values were read after incubation at 35-37° C. for 48 h (Table 3).

[5] = system: Propionibacterium acnes SW101T; test: MIC by anaerobic broth microdilution (WCB, NCCLS); conditions: code K: Propionibacterium acnes SW101T, 35-37° C., 48 h
Procedure: as §2

[6] = system: Haemophilus influenzae 12214; test: MIC by broth microdilution (CAMHB + 5% Fildes enrichment, NCCLS)
Procedure: as §1

[7] = system: Haemophilus influenzae QK50; test: as above
Procedure: as §1

[8] = system: Streptococcus pneumoniae SL199T; test: MIC by broth microdilution (CAMHB + 5% horse serum, NCCLS); conditions: code E: Streptococcus pneumoniae SL199T
Procedure: as §1

[9] = system: Streptococcus pneumoniae 1/1; test: as above; conditions: code D: Streptococcus pneumoniae 1/1
Procedure: as §1

[10] = system: Streptococcus pneumoniae Tupelo; test: as above; conditions: code F: Streptococcus pneumoniae Tupelo
Procedure: as §1

[11] = Cutibacterium acnes, read-out: MIC
[12] = code G: Haemophilus influenzae 12214, read-out: MIC
[13] = code H: Haemophilus influenzae QK50, read-out: MIC
[14] = Cutibacterium acnes, code I: Propionibacterium acnes EG7NS, anaerobic, 35-37° C., read-out: MIC
[15] = code I: Propionibacterium acnes EG7NS, anaerobic, 35-37° C.
[16] = code G: Haemophilus influenzae 12214
[17] = code H: Haemophilus influenzae QK50

SMILES	Average repression of activation (%) (Human neutrophils)	MIC ([1]; read-out: MIC)	MIC ([2]; ATCC25922, read-out: MIC)	MIC ([3]; ATCC29213, read-out: MIC)	MIC [5, 11]	MIC [6, 12]	MIC [7, 13]	MIC ([8]; read-out: MIC)	MIC ([9]; read-out: MIC)	MIC ([10]; read-out: MIC)	MIC [4, 14]	MIC [1]	MIC [2]	MIC [3]	MIC [4, 15]	MIC [5]	MIC [6, 16]	MIC [7, 17]	MIC [8]	MIC [9]	other results
CC[C@H]1OC(=O)[C@H](C)[C@@H](O[C@H]2C[C@@](C)(OC)[C@@H](O)[C@H](C)O2)[C@H](C)[C@@H](O[C@@H]2O[C@H](C)C[C@H](N(C)C)[C@H]2O)[C@](C)(O)C[C@@H](C)C(=O)[C@H](C)[C@@H](O)[C@]1(C)O [Erythromycin, reference compound]	5 ± 0.30%	> 32 µg/mL	> 32 µg/mL	0.5 µg/mL (≈ 0.681 µM)	> 32 µg/mL	4 µg/mL	2 µg/mL	> 32 µg/mL	≤ 0.06 µg/mL	8 µg/mL	–	–	–	–	–	–	–	–	–	–	MIC ([4]; Cutibacterium acnes, EG7NS): 0.125 µg/mL (≈ 0.17 µM)
CC[C@H]1OC(=O)[C@H](C)[C@@H](O[C@H]2C[C@@](C)(OC)[C@@H](O)[C@H](C)O2)[C@H](C)[C@@H](O[C@@H]2O[C@H](C)C[C@H](N(C)C)[C@H]2O)[C@](C)(OC)C[C@@H](C)C(=O)[C@H](C)[C@H]2[C@H](SCCn3cnc4c(N)ncnc43)C(=O)O[C@@]21C [Example 1, (3S, 3aR, 4R, 6R, 8R, 9R, 10S, 11S, 12R, 15R, 15aS)-3-[[2-[6-amino-9H-purin-9-yl]ethyl]thio]-11-[[2,6-dideoxy-3-C-methyl-3-O-methyl-α-L-ribo-hexopyranosyl]oxy]-15-ethyldecahydro-8-methoxy-4,6,8,10,12,15a-hexamethyl-9-[[3,4,6-trideoxy-3-(dimethylamino)-β-D-xylo-hexopyranosyl]oxy]-2H-furo [2,3-c]oxacyclotetradecin-2,5,13 (3H,6H)-trione]	19 ± 0.6%	≥ 32 µg/mL	≥ 32 µg/mL	1 µg/mL (≈ 1.04 µM)	1 µg/mL (≈ 1.04 µM)	1 µg/mL	0.5 µg/mL	0.125 µg/mL	≤ 0.06 µg/mL	0.5 µg/mL	≤ 0.06 µg/mL	–	–	–	–	–	–	–	–	–	–
CC[C@H]1OC(=O)[C@H](C)[C@@H](O[C@H]2C[C@@](C)(OC)[C@@H](O)[C@H](C)O2)[C@H](C)[C@@H](O[C@@H]2O[C@H](C)C[C@H](N(C)C)[C@H]2O)[C@](C)(OC)C[C@@H](C)C(=O)[C@H](C)[C@H]2[C@H](SCCn3cnc4cccnc43)C(=O)O[C@@]21C [Example 4, (3S, 3aR, 4R, 6R, 8R, 9R, 10S, 11S, 12R, 15R, 15aS)-11-[[2,6-dideoxy-3-C-methyl-3-O-methyl-α-L-ribo-hexopyranosyl]oxy]-15-ethyldecahydro-8-methoxy-4,6,8,10,12,15a-hexamethyl-3-[[2-[3H-imidazo[4,5-b]pyridin-3-yl]ethyl]thio]-9-[[3,4,6-trideoxy-3-(dimethylamino)-β-D-xylo-hexopyranosyl]oxy]-2H-furo [2,3-c] oxacyclotetradecin-2,5,13 (3H,6H)-trione]	31 ± 2.4%	≥ 32 µg/mL	32 µg/mL (≈ 33.7 µM)	1 µg/mL (≈ 1.05 µM)	4 µg/mL (≈ 4.21 µM)	–	–	0.5 µg/mL	≤ 0.06 µg/mL	0.5 µg/mL	0.125 µg/mL (≈ 0.132 µM)	–	–	–	–	–	–	–	–	–	MIC ([6]; Haemophilus influenzae, 12214): 2 µg/mL; MIC ([7]; Haemophilus influenzae, QK50): 2 µg/mL
CC[C@H]1OC(=O)[C@H](C)[C@@H](O[C@H]2C[C@@](C)(OC)[C@@H](O)[C@H](C)O2)[C@H](C)[C@@H](O[C@@H]2O[C@H](C)C[C@H](N(C)C)[C@H]2O)[C@](C)(OC)C[C@@H](C)C(=O)[C@H](C)[C@H]2[C@H](SCCn3cnc4c(N)nc(N)nc43)C(=O)O[C@@]21C [Example 11]	20 ± 0.97%	–	–	–	–	–	–	–	–	–	–	>=32 μg/ml	>=32 μg/ml	8 µg/mL (≈ 8.16 µM)	<=0.06 μg/ml	2 µg/mL (≈ 2.04 µM)	2 µg/mL	2 µg/mL	0.125 µg/mL	<=0.06 μg/ml	MIC [10]: 1 µg/mL
CC[C@H]1OC(=O)[C@H](C)[C@@H](O[C@H]2C[C@@](C)(OC)[C@@H](O)[C@H](C)O2)[C@H](C)[C@@H](O[C@@H]2O[C@H](C)C[C@H](N(C)C)[C@H]2O)[C@](C)(OC)C[C@@H](C)C(=O)[C@H](C)[C@H]2[C@H](SCC(=O)c3ccc4c(c3)OCO4)C(=O)O[C@@]21C [Example 29]	–	–	–	–	–	–	–	–	–	–	–	>32 µg/mL	32 µg/mL (≈ 33.1 µM)	1 µg/mL (≈ 1.03 µM)	<=0.06 μg/ml	>32 µg/mL	4 µg/mL	4 µg/mL	4 µg/mL	<=0.06 μg/ml	MIC [10]: 4 µg/mL
CC[C@H]1OC(=O)[C@H](C)C(=O)[C@H](C)[C@@H](O[C@@H]2O[C@H](C)C[C@H](N(C)C)[C@H]2O)[C@](C)(OC)C[C@@H](C)C(=O)[C@H](C)[C@H]2N(CCCCn3cnc(-c4cccnc4)c3)C(=O)O[C@]12C [Telithromycin, reference compound]	–	0.25 µg/mL (≈ 0.308 µM)	> 32 µg/mL	0.25 µg/mL (≈ 0.308 µM)	16 µg/mL (≈ 19.7 µM)	2 µg/mL	1 µg/mL	≤ 0.06 µg/mL	≤ 0.06 µg/mL	0.5 µg/mL	≤ 0.06 µg/mL	–	–	–	–	–	–	–	–	–	–
